How the values were obtained:
[1] = tested on: top 10 cocaine-dysregulated biological pathways in the hippocampus; experiment: Biological pathway analysis (IPA) of transcriptomics, cocaine-dysregulated pathways; type: in vivo, Male Wister rats; conditions: single treatment
Description: (§1) Animals were then randomly allocated to one of five groups and received a single i.p. injection of one of vehicle, 5 mg/kg 5-Meo-DMT, 0.14 mg/kg LSD, 1 mg/kg psilocybin, or 1 mg/kg DOI. On day 15, animals were euthanised and the hippocampus blunt dissected, snap frozen in liquid nitrogen and stored at −80° C. until further processing.
Subsequent pathway analyses were done using Ingenuity Pathway Analysis (IPA). Analysis settings for IPA included the Ingenuity Knowledge Base (Genes Only), direct and indirect relationships, and endogenous chemicals of the previously filtered list of differentially expressed genes. IPA was filtered to only consider molecules where the species were human, rat, or mouse and the confidence can be experimentally observed. Canonical pathways were utilized in pathway analysis, where the spreadsheet organized the values of significance to −log(p-value) and the rate of regulation to the z-score. Negative z-score values indicate downregulation and positive values indicate upregulation.

[2] = tested on: hippocampal proteins; experiment: Hippocampal LC-MS/MS proteomics, chronic cocaine with single psychedelic administration; type: in vivo, Male Wister rats; conditions: for differential expression of proteins in the control hippocampus: single i.p. dose (5-MeO-DMT 5 mg/kg, LSD 0.14 mg/kg, psilocybin 1 mg/kg, DOI 1 mg/kg) vs saline-saline, p<0.05, FC ±20%; for differential expression of proteins in the chronic cocaine hippocampus: single i.p. dose after 14 days cocaine 20 mg/kg (5-MeO-DMT 5, LSD 0.14, psilocybin 1, DOI 1 mg/kg) vs cocaine-saline; for reversal of chronic cocaine mediated proteomic changes in the hippocampus: single treatment (5-MeO-DMT 5, LSD 0.14, psilocybin 1, DOI 1 mg/kg i.p.)
Description: as §1
Protein from hippocampal tissue was processed for liquid chromatography tandem Mass Spectrometry (LC-MS/MS). Samples were run on a Thermo Scientific Q Exactive Mass Spectrometer connected to a Dionex Ultimate 3000 (RSLCnano) chromatography system in the UCD Conway Institute Core Mass Spectrometry Facility. Peptide and protein identification of MS/MS spectra were searched against the rat UniProt database using carbamidomethylation (C) as a fixed modification and acetylation (protein N terminus) and oxidation (M) as variable modifications with a false discovery rate filtering of 0.01. MaxQuant was using to generate label-free quantitative (LFQ) ion intensities and the Perseus statistical software contained in the MaxQuant package was used to analyse LFQ ion intensity. Statistical significance (p<0.05, FC±20%) of mean LFQ intensity between treatment groups was determined by two sample t-test. […] Networks were visualised using the stringApp (version 1.6.0) plugin for the Cytoscape software platform (version 3.8.2).

[3] = tested on: primary hippocampal neurons; experiment: Antagonist pre-treatment studies of neuronal structural change, Sholl analysis; type: cell-based, rat; conditions: for neuronal structural complexity (normalised AUC): meta-analysis
Description: Primary hippocampal cultures were grown on 18 mm glass coverslips at a density of 1×10^6 cells as described. On 3 DIV all cells underwent a full medium change. […] On 4 DIV, all cells underwent a second full medium change. Cells in the combination group were treated with 2 μM 5-MeO-DMT for a further 24 hours with all other groups beginning a 24-hour treatment. After treatment was completed the cells were fixed and processed as described below.
Based on the findings with other psychedelic drugs that share structural and behavioral similarities to 5-MeO-DMT we selected ANA-12 (Sigma), an antagonist of TrkB, the BDNF receptor, and rapamycin (ThermoFischer) an antagonist of the mammalian target of rapamycin (mTOR). Due to the affinity and known behavioral change induced by 5-MeO-DMT at the 5-HT1AR and 5-HT2AR we assessed their contribution to structural changes mediated by 5-MeO-DMT. The receptors were antagonized with WAY-100635 maleate (Tocris) or Ketanserin (Axxora), respectively. For all antagonist studies the antagonist under investigation was added 15 mins prior to drug treatment. […] ANA-12, Ketanserin and rapamycin were dissolved in dimethyl sulfoxide (DMSO) with a final concentration of 0.01-0.04% for treatment. WAY100635 was dissolved in sterile dH2O.
After termination of drug treatment coverslips were processed and imaged as outlined for immunocytochemistry. In all instances NeuN antibody staining was used to visualize projections from the cell body. Images were analyzed using the Simple Neurite Tracer and Sholl analysis plug-ins for ImageJ Fiji. For the Sholl analysis circle radii of 2 μm increments were used. All images were taken and analyzed by an experimenter blinded to treatment conditions.
Statistical Analysis—Data are represented as mean±SEM. Statistical analyses were performed using GraphPad Prism (version 5). For analyses involving comparison of three or more groups, a one-way ANOVA with Bonferroni's post-hoc test was utilized where appropriate. No statistics were calculated for the individual points of the Sholl plots, instead, statistical analyses were performed on the aggregate data, the area under the curve (AUC) of the Sholl plot. Secondary measurements were the Nmax, the maximum number of intersections measured by the Sholl analysis, which indicated the number of projections emanating from a neuron and the average length of primary neurites originating from the cell soma.

[4] = target: 5-HT2AR (Homo sapiens, UniProt P28223); conditions: metabolite of 5-MeO-DMT; cited from earlier work
[5] = ketanserin 100 μM treated groups relative to control

5-HT2AR, sequence (P28223 whole entry): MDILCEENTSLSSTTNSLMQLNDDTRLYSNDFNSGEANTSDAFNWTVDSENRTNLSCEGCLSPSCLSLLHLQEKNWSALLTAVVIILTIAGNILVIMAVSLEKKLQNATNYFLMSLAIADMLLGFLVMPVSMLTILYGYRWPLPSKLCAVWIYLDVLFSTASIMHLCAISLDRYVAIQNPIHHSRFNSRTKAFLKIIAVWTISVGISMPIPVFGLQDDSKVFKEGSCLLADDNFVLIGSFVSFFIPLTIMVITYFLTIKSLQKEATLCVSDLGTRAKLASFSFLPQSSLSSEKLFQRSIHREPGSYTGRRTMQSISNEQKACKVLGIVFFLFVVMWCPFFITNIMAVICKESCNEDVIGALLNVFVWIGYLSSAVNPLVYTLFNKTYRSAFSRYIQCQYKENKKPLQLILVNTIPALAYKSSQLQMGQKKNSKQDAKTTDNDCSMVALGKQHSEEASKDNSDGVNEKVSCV

For `CCN(CC)C(=O)[C@@H]1C=C2c3cccc4[nH]cc(c34)C[C@H]2N(C)C1` [LSD, Lysergic acid diethylamide], the “number of the top 10 dysregulated pathways corrected” value [1] was 5 pathways, the “top 10 cocaine-dysregulated biological pathways corrected” value [1] was 50% and the “differential expression of proteins in the control hippocampus” value [2] was 73 proteins. The “differential expression of proteins in the chronic cocaine hippocampus” value [2] was 57 proteins and the “reversal of chronic cocaine mediated proteomic changes in the hippocampus” value [2] was 59%.

In the case of `COc1cc(CC(C)N)c(OC)cc1I` (stereo not drawn) [DOI, 2,5-Dimethoxy-4-iodoamphetamine], the “differential expression of proteins in the control hippocampus” value [2] is reported as 79 proteins, the “differential expression of proteins in the chronic cocaine hippocampus” value [2] is reported as 55 proteins and the “reversal of chronic cocaine mediated proteomic changes in the hippocampus” value [2] is reported as 70%.

For `O=C(c1ccc(F)cc1)C1CCN(CCn2c(=O)[nH]c3ccccc3c2=O)CC1` [Ketanserin], the average neurite length [3, 5] was “significantly decreased”, the “maximum number of intersections (Nmax)” value [3, 5] was “significantly reduced” and the “normalised AUC of the Sholl plot” value ([3]; ketanserin 100 μM, 15 min pre-treatment, all treatment groups) was “significantly reduced normalised AUC across all treatment groups”. The “neuronal structural complexity (normalised AUC)” value ([3]; ketanserin pre-treatment) was “significantly reduced normalised AUC across all treatment groups”.

With `COc1ccccc1N1CCN(CCN(C(=O)C2CCCCC2)c2ccccn2)CC1.O=C(O)/C=C\C(=O)O` [WAY100635, WAY-100635 maleate] the average neurite length ([3]; WAY100635 100 nM pre-treatment before 5-MeO-DMT) was “prevented the 5-Meo-mediated increase in neurite length”, the “maximum number of intersections (Nmax)” value ([3]; WAY100635 100 nM treated groups relative to vehicle treated pairings) was “significantly reduced” and the “normalised AUC of the Sholl plot” value ([3]; WAY100635 100 nM, 15 min pre-treatment before 5-MeO-DMT or cocaine) was “prevented the 5-Meo- and cocaine-induced increase in normalised AUC”. For the same compound, the “neuronal structural complexity (normalised AUC)” value ([3]; WAY100635 pre-treatment) was “prevented the increase in complexity mediated by all treatments”.

In the case of `CN(C)CCc1c[nH]c2cccc(OP(=O)(O)O)c12` [psilocybin, Psilocybin], the “number of the top 10 dysregulated pathways corrected” value [1] is reported as 7 pathways, the “top 10 cocaine-dysregulated biological pathways corrected” value [1] is reported as 70% and the “differential expression of proteins in the control hippocampus” value [2] is reported as 91 proteins. For the same compound, the “differential expression of proteins in the chronic cocaine hippocampus” value [2] was 45 proteins and the “reversal of chronic cocaine mediated proteomic changes in the hippocampus” value [2] was 74%.

In the case of `CN(C)CCc1c[nH]c2ccc(O)cc12` [bufotenine, 5-hydroxy,N,Ndimethyltryptamine], the “affinity for the 5-HT2AR relative to the parent compound” value [4] is listed as “much higher affinity for the 5-HT2AR than the parent compound”.

With `O=C(Nc1ccccc1C(=O)NC1CCCCNC1=O)c1cc2ccccc2s1` (stereo not drawn) [ANA-12] the average neurite length ([3]; ANA-12 10 μM pre-treatment, 5-MeO-DMT-induced increase) was “blocked”, the “AUC of the Sholl plot” value ([3]; ANA-12 10 μM, 15 min pre-treatment before 5-MeO-DMT, cocaine or combination) was “prevented the 5-Meo-, cocaine- or combination-induced increase in AUC” and the “maximum number of intersections (Nmax)” value ([3]; ANA-12 pre-treated combination group relative to vehicle pre-treated combination group) was “significantly reduced”. For the same compound, the “AUC of the Sholl plot” value ([3]; control+ANA-12 vs control+vehicle (basal complexity)) was “no difference in AUC” and the “neuronal structural complexity (normalised AUC)” value ([3]; ANA-12 pre-treatment) was “prevented the 5-Meo-, cocaine- or combination-induced increase in complexity”.

Reference: patent US20240299353A1, “COMPOSITIONS AND METHODS FOR TREATING […] 5-MEO-DMT” (Alvarius Pharmaceuticals Ltd., priority 2021, published 2024)
